Source: PubChem BioAssay AID1259407 (Chemical Carcinogenesis Research Information System (CCRIS), 2018)
Calls of active or inactive are those of the source. The rule behind the calls is not given here.

Test system: CCRIS mutagenicity, Ames/micronucleus/aberration tests
Test: CCRIS mutagenicity studies
[1] = Test System: AMES SALMONELLA TYPHIMURIUM, Strain/Indicator: TA97, Metabolic Activation: NONE, Method: PREINCUBATION
[2] = Test System: AMES SALMONELLA TYPHIMURIUM, Strain/Indicator: TA97, Metabolic Activation: RAT, LIVER, S-9, AROCLOR 1254 (10 OR 30%), Method: PREINCUBATION
[3] = Test System: AMES SALMONELLA TYPHIMURIUM, Strain/Indicator: TA98, Metabolic Activation: NONE, Method: PREINCUBATION
[4] = Test System: AMES SALMONELLA TYPHIMURIUM, Strain/Indicator: TA98, Metabolic Activation: RAT, LIVER, S-9, AROCLOR 1254 (10 OR 30%), Method: PREINCUBATION
[5] = Test System: AMES SALMONELLA TYPHIMURIUM, Strain/Indicator: TA100, Metabolic Activation: NONE, Method: PREINCUBATION
[6] = Test System: AMES SALMONELLA TYPHIMURIUM, Strain/Indicator: TA100, Metabolic Activation: RAT, LIVER, S-9, AROCLOR 1254 (10 OR 30%), Method: PREINCUBATION
[7] = Test System: AMES SALMONELLA TYPHIMURIUM, Strain/Indicator: TA1535, Metabolic Activation: NONE, Method: PREINCUBATION
[8] = Test System: AMES SALMONELLA TYPHIMURIUM, Strain/Indicator: TA1535, Metabolic Activation: RAT, LIVER, S-9, AROCLOR 1254 (10 OR 30%), Method: PREINCUBATION

## C[N+](C)(C)Cc1ccccc1
Test System: AMES SALMONELLA TYPHIMURIUM, Strain/Indicator: TA97, Metabolic Activation: HAMSTER, LIVER, S-9, AROCLOR 1254 (10 OR 30%), Method: PREINCUBATION
  mutagenic call: inactive; negative
[1]
  mutagenic call: inactive; negative
[2]
  mutagenic call: inactive; negative
Test System: AMES SALMONELLA TYPHIMURIUM, Strain/Indicator: TA98, Metabolic Activation: HAMSTER, LIVER, S-9, AROCLOR 1254 (10 OR 30%), Method: PREINCUBATION
  mutagenic call: inactive; negative
[3]
  mutagenic call: inactive; negative
[4]
  mutagenic call: inactive; negative
Test System: AMES SALMONELLA TYPHIMURIUM, Strain/Indicator: TA100, Metabolic Activation: HAMSTER, LIVER, S-9, AROCLOR 1254 (10 OR 30%), Method: PREINCUBATION
  mutagenic call: inactive; negative
[5]
  mutagenic call: inactive; negative
[6]
  mutagenic call: inactive; negative
Test System: AMES SALMONELLA TYPHIMURIUM, Strain/Indicator: TA1535, Metabolic Activation: HAMSTER, LIVER, S-9, AROCLOR 1254 (10 OR 30%), Method: PREINCUBATION
  mutagenic call: inactive; negative
[7]
  mutagenic call: inactive; negative
[8]
  mutagenic call: inactive; negative

## CCC(C)OS(C)(=O)=O (centres undefined)
End Point: IN VITRO MICRONUCLEUS, Test System: MOUSE LYMPHOMA L5178Y CELLS, Metabolic Activation: NONE
  mutagenic call: active; positive
End Point: IN VITRO MICRONUCLEUS, Test System: MOUSE LYMPHOMA L5178Y CELLS, Metabolic Activation: RAT, LIVER, S-9
  mutagenic call: active; positive
Test System: AMES SALMONELLA TYPHIMURIUM, Strain/Indicator: TA98, Metabolic Activation: NONE, Method: STANDARD PLATE
  mutagenic call: active; positive
Test System: AMES SALMONELLA TYPHIMURIUM, Strain/Indicator: TA98, Metabolic Activation: RAT, LIVER, S-9, Method: STANDARD PLATE
  mutagenic call: active; positive
Test System: AMES SALMONELLA TYPHIMURIUM, Strain/Indicator: TA100, Metabolic Activation: NONE, Method: STANDARD PLATE
  mutagenic call: active; positive
Test System: AMES SALMONELLA TYPHIMURIUM, Strain/Indicator: TA100, Metabolic Activation: RAT, LIVER, S-9, Method: STANDARD PLATE
  mutagenic call: active; positive
Test System: AMES SALMONELLA TYPHIMURIUM, Strain/Indicator: TA1535, Metabolic Activation: NONE, Method: STANDARD PLATE
  mutagenic call: active; positive
Test System: CHINESE HAMSTER V-79, Strain/Indicator: V-79/6-THIOGUANINE, Metabolic Activation: NONE
  mutagenic call: active; positive

## Cl/C=C\Cl
End Point: IN VITRO CHROMOSOMAL ABERRATIONS, Test System: CHINESE HAMSTER LUNG (CHL), Metabolic Activation: NONE
  mutagenic call: inactive; negative
End Point: IN VITRO CHROMOSOMAL ABERRATIONS, Test System: CHINESE HAMSTER LUNG (CHL), Metabolic Activation: RAT. LIVER, S-9, KC-400
  mutagenic call: inactive; negative
Test System: AMES SALMONELLA TYPHIMURIUM, Strain/Indicator: TA97, Metabolic Activation: HAMSTER LIVER S-9, AROCLOR 1254 (10%), Method: PREINCUBATION
  mutagenic call: inactive; negative
Test System: AMES SALMONELLA TYPHIMURIUM, Strain/Indicator: TA97, Metabolic Activation: HAMSTER LIVER S-9, AROCLOR 1254 (30%), Method: PREINCUBATION
  mutagenic call: inactive; negative
Test System: AMES SALMONELLA TYPHIMURIUM, Strain/Indicator: TA97, Metabolic Activation: HAMSTER, LIVER, S-9, AROCLOR 1254 (10%), Method: PREINCUBATION
  mutagenic call: inactive; negative
Test System: AMES SALMONELLA TYPHIMURIUM, Strain/Indicator: TA97, Metabolic Activation: HAMSTER, LIVER, S-9, AROCLOR 1254 (30%), Method: PREINCUBATION
  mutagenic call: inactive; negative
[1]
  mutagenic call: inactive; negative
Test System: AMES SALMONELLA TYPHIMURIUM, Strain/Indicator: TA97, Metabolic Activation: RAT LIVER S-9, AROCLOR 1254 (10% OR 30%), Method: PREINCUBATION
  mutagenic call: inactive; negative
[2]
  mutagenic call: inactive; negative
Test System: AMES SALMONELLA TYPHIMURIUM, Strain/Indicator: TA98, Metabolic Activation: HAMSTER LIVER S-9, AROCLOR 1254 (10%), Method: PREINCUBATION
  mutagenic call: inactive; negative
Test System: AMES SALMONELLA TYPHIMURIUM, Strain/Indicator: TA98, Metabolic Activation: HAMSTER LIVER S-9, AROCLOR 1254 (30%), Method: PREINCUBATION
  mutagenic call: inactive; negative
Test System: AMES SALMONELLA TYPHIMURIUM, Strain/Indicator: TA98, Metabolic Activation: HAMSTER, LIVER, S-9, AROCLOR 1254 (10%), Method: PREINCUBATION
  mutagenic call: inactive; negative
Test System: AMES SALMONELLA TYPHIMURIUM, Strain/Indicator: TA98, Metabolic Activation: HAMSTER, LIVER, S-9, AROCLOR 1254 (30%), Method: PREINCUBATION
  mutagenic call: inactive; negative
[3]
  mutagenic call: inactive; negative
Test System: AMES SALMONELLA TYPHIMURIUM, Strain/Indicator: TA98, Metabolic Activation: RAT LIVER S-9, AROCLOR 1254 (10% OR 30%), Method: PREINCUBATION
  mutagenic call: inactive; negative
[4]
  mutagenic call: inactive; negative
Test System: AMES SALMONELLA TYPHIMURIUM, Strain/Indicator: TA100, Metabolic Activation: HAMSTER LIVER S-9, AROCLOR 1254 (10%), Method: PREINCUBATION
  mutagenic call: inactive; negative
Test System: AMES SALMONELLA TYPHIMURIUM, Strain/Indicator: TA100, Metabolic Activation: HAMSTER LIVER S-9, AROCLOR 1254 (30%), Method: PREINCUBATION
  mutagenic call: inactive; negative
Test System: AMES SALMONELLA TYPHIMURIUM, Strain/Indicator: TA100, Metabolic Activation: HAMSTER, LIVER, S-9, AROCLOR 1254 (10%), Method: PREINCUBATION
  mutagenic call: inactive; negative
Test System: AMES SALMONELLA TYPHIMURIUM, Strain/Indicator: TA100, Metabolic Activation: HAMSTER, LIVER, S-9, AROCLOR 1254 (30%), Method: PREINCUBATION
  mutagenic call: inactive; negative
[5]
  mutagenic call: inactive; negative
Test System: AMES SALMONELLA TYPHIMURIUM, Strain/Indicator: TA100, Metabolic Activation: RAT LIVER S-9, AROCLOR 1254 (10% OR 30%), Method: PREINCUBATION
  mutagenic call: inactive; negative
[6]
  mutagenic call: inactive; negative
Test System: AMES SALMONELLA TYPHIMURIUM, Strain/Indicator: TA1535, Metabolic Activation: HAMSTER LIVER S-9, AROCLOR 1254 (10%), Method: PREINCUBATION
  mutagenic call: inactive; negative
Test System: AMES SALMONELLA TYPHIMURIUM, Strain/Indicator: TA1535, Metabolic Activation: HAMSTER, LIVER, S-9, AROCLOR 1254 (10%), Method: PREINCUBATION
  mutagenic call: inactive; negative
Test System: AMES SALMONELLA TYPHIMURIUM, Strain/Indicator: TA1535, Metabolic Activation: HAMSTER, LIVER, S-9, AROCLOR 1254 (30%), Method: PREINCUBATION
  mutagenic call: inactive; negative
[7]
  mutagenic call: inactive; negative
Test System: AMES SALMONELLA TYPHIMURIUM, Strain/Indicator: TA1535, Metabolic Activation: RAT LIVER S-9, AROCLOR 1254 (10% OR 30%), Method: PREINCUBATION
  mutagenic call: inactive; negative
[8]
  mutagenic call: inactive; negative
Test System: AMES SALMONELLA TYPHIMURIUM, Strain/Indicator: TA1537, Metabolic Activation: HAMSTER LIVER S-9, AROCLOR 1254 (30%), Method: PREINCUBATION
  mutagenic call: inactive; negative
Test System: AMES SALMONELLA TYPHIMURIUM, Strain/Indicator: TA1537, Metabolic Activation: HAMSTER, LIVER, S-9, AROCLOR 1254 (30%), Method: PREINCUBATION
  mutagenic call: inactive; negative
Test System: AMES SALMONELLA TYPHIMURIUM, Strain/Indicator: TA1537, Metabolic Activation: NONE, Method: PREINCUBATION
  mutagenic call: inactive; negative
Test System: AMES SALMONELLA TYPHIMURIUM, Strain/Indicator: TA1537, Metabolic Activation: RAT LIVER S-9, AROCLOR 1254 (30%), Method: PREINCUBATION
  mutagenic call: inactive; negative
Test System: AMES SALMONELLA TYPHIMURIUM, Strain/Indicator: TA1537, Metabolic Activation: RAT, LIVER, S-9, AROCLOR 1254 (30%), Method: PREINCUBATION
  mutagenic call: inactive; negative
